Key:
Format in all cases: physicochemical
[1] = Solubility in Rhodiasolv IRIS solvent; conditions: for Solubility in Rhodiasolv IRIS: Rhodiasolv IRIS (dimethyl-2-methyl glutarate), wt %
Excerpt: A compound with greater solubility allows for a formulation or material with a greater concentration of coloured molecule to be incorporated into a composition. This may allow for increasing the contrast ratio for a compound with a lesser absorbance at PSS. Examples of solubilizing groups for the compound include alkoxy, ether, ester or siloxy groups. In various embodiments, compounds may be soluble in the solvent component at room temperature at about 6 wt %, 7 wt %, 8 wt %, 9 wt %, 10 wt % or greater for testing to determine whether a compound has application as an exterior glazing or optical filter. If the solubility of a compound in the solvent component is too low, then insufficient darkening may be achieved in the ring-closed configuration, depending on conditions of use for the compound.
(§1) Chromophore solutions in Rhodiasolv IRIS were prepared at 1 to 10 wt % loading. Solutions were prepared in a glovebox by charging the chromophore and Rhodiasolv IRIS to a trace-clean vial, and the solution was stirred on a hotplate at 90° C. for 2-24 hours. After cooling, the chromophore solution was injected into glass weathering cells and the fill and vent ports were sealed with a thin disc of Kalrez (FFKM Perfluorinated Elastomer) and secured with a clamp and set-screw. The weathering cells were filled and sealed inside the glove box.

[2] = Photostability: xenon arc weathering of chromophore solutions, LCMS analysis; conditions: for Ketone (%) / Minus-2HF (%) / Minus-HF (%) / Sulfone (%) / Chromophore Remaining (%): xenon arc, 82° C. bp; for Ketone (%) / Minus-2HF (%) / Minus-HF (%) / Sulfone (%): linearly interpolated to 0.5 MJ/m2 @ 340 nm; for Chromophore Remaining (%): linearly interpolated to 0.5 MJ/m2 @ 340 nm of exposure energy; for Ratio of chromophore remaining relative to S340: interpolated to 0.5 MJ/m^2 of energy exposure at 340 nm; for Photostability (in words): weathering experiments
Excerpt: Photostability (resistance to light-induced degradation) may be measured by the amount of time required for the compound, or a material comprising the compound, to degrade to a certain point under light exposure. The light exposure may be constant, or cyclic. The light transmittance or absorbance of the compound, or material comprising the compound, may be determined at both a light state and dark state prior to testing, to determine a contrast ratio. During testing, the contrast ratio may be monitored (periodically or continually), the compound or material may be determined to have failed when the contrast ratio falls outside, or below, a selected range, or when the contrast ratio decreases to a percentage of the original contrast ratio. Photostability may also be expressed with reference to a light source or with reference to a type of light.
as §1
Measurement of Photostability
A. Fabrication of cuvettes. Two holes of 0.8 mm diameter were drilled at opposite ends in a 75×50 mm piece of float glass using a diamond drill bit in a rotary tool. The drilled glass and a matching piece of undrilled glass were then cleaned using hot soapy water, rinsed with deionized water and acetone and then dried with compressed air. A 5 mm wide frame was cut from a sheet of 50 μm thickness EVAL EF-F using a laser engraver. The EVAL frame was placed around the perimeter of one sheet of glass and sandwiched by the second sheet of glass. The glass-EVAL-glass sandwich was secured with tape and heated under vacuum (10 mmHg) for 30 minutes at 170° C. in a vacuum bag. After cooling, a third piece of float glass was PVB laminated to the non-drilled side of the sealed glass cells using Trosifol UV Extra Protect B150 PVB (400 nm UV cut-off).
B. Xenon arc weathering protocol. Devices were exposed to simulated weathering conditions inside a Xe-3-HS xenon arc chamber, manufactured by Q-labs Inc. The samples were weathered according to the following table. The devices were exposed to these conditions continuously, with no dark or spray cycles included.
C. Analysis of weathered chromophore solutions by LCMS. The set-screws, metal clamps and Kalrez plugs were removed from the cuvette to expose the fill port. A 5 mL plastic syringe (NORM-JECT®) equipped with a tip (Precision Tips, 0.010″ RED) was inserted into one fill port and the chromophore solution was withdrawn from the cuvette. The chromophore solution was then injected into a 2 mL amber vial (part number 5182-0716, Agilent Technology) prefilled with 1.5 mL LC-MS grade acetonitrile (HiPerSolbe CHROMANORM Acetonitrile, VWR BDH Chemicals). An aliquot of the acetonitrile solution (2 μL) was injected into the LC-MS system (Agilent Infinity 1290 LC-MS system with diode array detector) through an autosampler mechanism. Species in the injected sample were separated through a reverse phase column (Zorbax SB-C18, 2.1×50 mm, 1.8 μm, operated at 40° C.), using a mixture of acetonitrile (mixed with 1% formic acid v/v ratio), methanol (HiPerSolbe CHROMANORM Methanol, VWR BDH Chemicals) and water (HiPerSolbe CHROMANORM Water, VWR BDH Chemicals) as mobile phase.

[3] = Oxidation potential of ring-closed and ring-open isomers; conditions: no unit printed in table (V relative to Ag/AgCl)
Excerpt: In various embodiments, at a PSS, some of the chromophore will be in the ring-closed isomer, with a small, but non-zero portion of ring-open isomer. The oxidation potential of a ring-open isomer may be more anodic than the oxidation potential of a ring-closed isomer. Exposure to a potential that is too far beyond what is necessary to oxidize the ring-closed isomer may result in oxidation of the ring-open isomer, which may be irreversible and result in electrochemically-induced degradation of the chromophore.
Thus, in various embodiments, an anodic chromophore may have an oxidation potential of from about 0.4 V to 1.2 V for the ring-closed isomer and about 1.0 V to 2.5 V for the ring-open isomer relative to an Ag/AgCl reference electrode. In various embodiments, the oxidation potential for the ring-open isomer is about 250 mV more anodic than the oxidation potential for the ring-closed isomer. For example, the oxidation potential may be about 260 mV, about 280 mV, about 300 mV, about 320 mV, about 340 mV, about 360 mV, about 380 mV, about 400 mV, about 420 mV, about 440 mV, or about 460 mV more anodic than the oxidation potential for the ring-closed isomer.

Row | Compound | Solubility in Rhodiasolv IRIS [1] [%] | Ketone (%) ([2]; 3 wt % in Rhodiasolv IRIS) | Minus-2HF (%) ([2]; 3 wt % in Rhodiasolv IRIS) | Minus-HF (%) ([2]; 3 wt % in Rhodiasolv IRIS) | Sulfone (%) ([2]; 3 wt % in Rhodiasolv IRIS) | Chromophore Remaining (%) ([2]; 3 wt % in Rhodiasolv IRIS) | Ratio of chromophore remaining relative to S340 ([2]; 3 wt %) | Photostability (in words) [2] | RC [O] (oxidation potential of ring-closed isomer) [3] | RO [O] (oxidation potential of ring-open isomer) [3] | Solubility (in words) ([1]; relative to the methoxy parent chromophore) | Ketone (%) ([2]; 10 wt % in Rhodiasolv IRIS) | Minus-2HF (%) ([2]; 10 wt % in Rhodiasolv IRIS) | Minus-HF (%) ([2]; 10 wt % in Rhodiasolv IRIS) | Sulfone (%) ([2]; 10 wt % in Rhodiasolv IRIS) | Chromophore Remaining (%) ([2]; 10 wt % in Rhodiasolv IRIS) | Ratio of chromophore remaining relative to S340 ([2]; 10 wt %)
1 | COc1cc2oc(-c3ccc(C(C)(C)C)cc3)c(C3=C(c4cc(-c5ccc(C(C)(C)C)s5)sc4-c4ccc(C(C)(C)C)s4)C(F)(F)C(F)(F)C3(F)F)c2cc1OC [Chromophore S340, 2-(4-(tert-butyl)phenyl)-3-(2-(5,5″-di-tert-butyl-[2,2′:5′,2″-terthiophen]-3′-yl)-3,3,4,4,5,5-hexafluorocyclopent-1-en-1-yl)-5,6-dimethoxybenzofuran] | 7 | 0.0 | 1.0 | 3.5 | 0.0 | 91.1 | 1.00 | acceptable photostability | 0.95 | 1.35 |  |  |  |  |  |  | 
2 | CC(C)(C)c1ccc(-c2oc3ccccc3c2C2=C(c3cc(-c4ccc(C(C)(C)C)s4)sc3-c3ccc(C(C)(C)C)s3)C(F)(F)C(F)(F)C2(F)F)cc1 [Chromophore S343, 2-(4-(tert-butyl)phenyl)-3-(2-(5,5″-di-tert-butyl-[2,2′:5′,2″-terthiophen]-3′-yl)-3,3,4,4,5,5-hexafluorocyclopent-1-en-1-yl)benzofuran] | <1 | 0.0 | 3.1 | 0.0 | 0.0 | 85.2 | 0.93 | more rapid degradation compared to S340 | 1.1 | 1.37 |  |  |  |  |  |  | 
3 | COc1ccc2oc(-c3ccc(C(C)(C)C)cc3)c(C3=C(c4cc(-c5ccc(C(C)(C)C)s5)sc4-c4ccc(C(C)(C)C)s4)C(F)(F)C(F)(F)C3(F)F)c2c1 [Chromophore S344, 2-(4-(tert-butyl)phenyl)-3-(2-(5,5″-di-tert-butyl-[2,2′:5′,2″-terthiophen]-3′-yl)-3,3,4,4,5,5-hexafluorocyclopent-1-en-1-yl)-5-methoxybenzofuran] | <3 | 0.0 | 8.0 | 25.7 | 0.0 | 65.1 | 0.71 | more rapid degradation compared to S340 | 1.05 | 1.36 |  |  |  |  |  |  | 
4 | COCCOc1cc2oc(-c3ccc(C(C)(C)C)cc3)c(C3=C(c4cc(-c5ccc(C(C)(C)C)s5)sc4-c4ccc(C(C)(C)C)s4)C(F)(F)C(F)(F)C3(F)F)c2cc1OCCOC [Chromophore S364, 2-(4-(tert-butyl)phenyl)-3-(2-(5,5″-di-tert-butyl-[2,2′:5′,2″-terthiophen]-3′-yl)-3,3,4,4,5,5-hexafluorocyclopent-1-en-1-yl)-5,6-bis(2-methoxyethoxy)benzofuran] | >10 |  |  |  |  |  |  | decreased stability | 0.93 | 1.32 | improved | 0.6 | 2.7 | 14.9 | 0.0 | 80.4 | 0.88
